{
  "source": "patent US20250312320A1",
  "about": "“METHOD AND TREATMENT FOR OSTEOARTHRITIS AND DISEASES OF CHONDROCYTE HYPERTROPHY” (The Royal Veterinary College, priority 2022, published 2025)",
  "key": {"ATDC5 micromass": {"tested_on": "ATDC5 micromass", "test": "IL-1β induced extracellular matrix degradation of ATDC5 micromass: gene expression", "type": "cell-based, mouse", "description": "To mimic this route of cartilage degradation in vitro, 10 μl ATDC5 micromasses were seeded and differentiated in the presence of 1 μM BI1347 or DMSO for 11 days to allow for sufficient ECM deposition. Cells were then serum starved for 24 hours in differentiation media containing 1% FBS before treatment with 1 μM BI1347 or DMSO for 1 hour and subsequent induction of ECM degradation by co-treatment with 10 ng/ml IL-1β (PeproTech) for 48 hours. Compound only conditions were used as a negative control and additional micromasses were differentiated in the presence of 1 μM BI1347 for the entire culture period to observe whether pre-treatment of ATDC5 with BI1347 alters cellular responses to IL-1B. On day 14 micromasses were stained with alcian blue and leached as previous and RNA extracted for gene expression analysis as above."}, "[1]": {"tested_on": "primary canine articular chondrocytes", "test": "Primary canine articular chondrocytes in chondrogenesis and IL1β OA disease model: gene expression", "type": "cell-based", "details": "100 nM", "description": "Articular cartilage was isolated, placed into a petri dish containing phosphate buffer saline (PBS) supplemented with 2% Ab/Am (PBS-Ab/Am) and transferred to a laminar flow hood for processing. Cartilage shavings were minced using a sterile scalpel to approximately 1 mm^3 and washed in fresh PBS-Ab/Am by centrifugation at 500×g for 10 minutes. Supernatant was removed and the cartilage pellet resuspended in 5 ml TrypLE™ (Gibco) before incubation at 37° C. for 10 minutes with gentle agitation. Dissociated cartilage fragments were pelleted and washed to remove excess TrypLE and resuspended in DMEM-complete media (DMEM/F12 (Gibco), 1% Ab/Am, 10% FBS) supplemented with 2 mg/ml Collagenase Type II and incubated overnight at 37° C. with gentle agitation. The cartilage digest was pelleted, washed and subsequently resuspended in DMEM-complete. Released cells were counted using a haematocytometer and seeded at 10,000 cells per cm^2. The cultures were incubated at 37° C., 5% CO2 in a humidified incubator for 2 days before refreshing DMEM-complete every 2 days until confluency. For differentiation experiments, primary chondrocytes were differentiated in DMEM/F12 containing 2% FBS, 1% Ab/Am, 1× Insulin-Transferrin-Selenium premix, 10 ng/ml TGFβ3 (primary chondrocyte differentiation media).\n(§1) Additional experiments were carried out on primary chondrocytes (equine, canine and human) and ihMSC (TERT immortalised human mesenchymal stromal cell line) to investigate whether CDK8i protects from IL-1β induced degradation when added throughout the entirety of differentiation/IL-1β treatment. Briefly, ihMSCs were seeded at a density of 5×10^4 cells per 10 μl micromass and differentiated in ihMSC chondrogenic media (1% FBS, 1% Ab/Am, 1× Insulin-Transferrin-Selenium premix, 10 μM Y-27632, 100 nM dexamethasone, 50 μg/ml ascorbic acid, 20 ng/ml TGF-β3 (Peprotech)). Primary chondrocytes were seeded at 2.7×10^5 cells per 10 μl micromass and differentiated in primary chondrocyte differentiation media. All micromasses were differentiated for 12 days in the presence of 100 nM […] or DMSO. Some micromasses were processed for gene expression analysis/alcian blue staining on day 12, whilst others were treated with IL-β media (1% FBS, 1% Ab/Am, 10 ng/ml IL-1B) and CDK8i for 48-hours before processing for alcian blue staining/gene expression analysis on day 14 as previously described."}, "[2]": {"tested_on": "STR/Ort mouse (spontaneous osteoarthritis)", "test": "STR/Ort mouse pilot study: cartilage manifestations and gene expression markers", "type": "in vivo", "details": "5 mg/kg oral gavage intermittently, 2 weeks", "description": "The STR/Ort mouse is a spontaneous mouse model of osteoarthritis which follows a similar trajectory as primary osteoarthritis disease development as humans and companion animals. […] An initial pilot study consisting of 2 male STR/Ort mice aged 18 weeks per group was carried out. Mice were dosed 5 mg/kg […] (N=2) or DMSO (N=2) in 60% PEG400 via oral gavage 3 times a week intermittently for 2 weeks. On day 14, mice were sacrificed, and articular cartilage was harvested from the knee joint using a micro rongeur. Tissue was homogenised in Qiazol using 2.4 mm beads in pre-chilled Tissue Lyser II racks (Qiagen) at 30 Hz for 5 minutes in total with intervals for samples to be chilled on ice every 60 seconds to prevent sample heating. Homogenised samples were directly processed for RNA extraction using the Direct-Zol microprep kit (Zymo) and RNA was processed for gene expression analysis via qPCR as previous."}, "[3]": {"tested_on": "ihMSC (TERT immortalised human mesenchymal stromal cell line)", "test": "ihMSC micromasses in chondrogenesis and IL1β OA disease degradation model", "type": "cell-based", "details": "100 nM", "description": "as §1"}, "[4]": {"tested_on": "STR/Ort mouse (spontaneous osteoarthritis)", "test": "STR/Ort mouse 12 week study: gait analysis", "type": "in vivo", "details": "5 mg/kg intermittently", "description": "Following the pilot study, a larger in vivo study using the STR/Ort OA mouse model was conducted. Str/ORT male mice aged 22 weeks (post OA onset) were dosed with either DMSO (N=5) or MSC2530818 5 mg/kg (N=6) intermittently as above for 12 weeks.\nOn week 11 mice were placed on the DigiGate™ system (MouseSpecifics), a treadmill based video gait analysis software. For Gait analysis, each mouse was placed on the DigiGate™ and allowed to acclimatise for 5 minutes, the belt speed was then set to 13 cm/s for 10 seconds to capture videos of mice whilst walking. Videos were then cropped to 5 seconds of active walking and number of steps per hind limb was counted for each mouse."}, "[5]": {"details": "1 μM days 12-14, with 10 ng/ml IL-1β"}, "[6]": {"details": "1 μM throughout differentiation, 10 ng/ml IL-1β days 12-14"}},
  "note": "Entries after “also recorded” stand apart in the source; their conditions may differ.",
  "data": [
    {"smiles": "CN(C)C(=O)Cn1cc(-c2ccc(-c3cncc4ccccc34)cc2)cn1", "note": "[BI1347]", "values": [
      {"measurement": "ACAN expression, increase vs DMSO", "setting": "ATDC5 micromass; [5]", "value": 3, "unit": "fold"},
      {"measurement": "COL2A1 expression, increase vs DMSO", "setting": "ATDC5 micromass; [5]", "value": 1.5, "unit": "fold"},
      {"measurement": "COL2A1 expression, increase vs DMSO", "setting": "ATDC5 micromass; 1 μM days 12-14, without IL-1β", "value": 1.7, "unit": "fold"},
      {"measurement": "ACAN expression, increase vs DMSO", "setting": "ATDC5 micromass; 1 μM days 12-14, without IL-1β (N.S)", "value": 1.2, "unit": "fold"},
      {"measurement": "ACAN expression, increase vs DMSO", "setting": "ATDC5 micromass; [6]", "value": 20, "unit": "fold"},
      {"measurement": "COL2A1 expression, increase vs DMSO", "setting": "ATDC5 micromass; [6]", "value": 3, "unit": "fold"}
    ]},
    {"smiles": "Cc1n[nH]c2ncc(C(=O)N3CCC[C@H]3c3ccc(Cl)cc3)cc12", "note": "[MSC2530818]", "values": [
      {"measurement": "ACAN gene expression, increase vs DMSO", "setting": "[1]; OA disease model (+IL1β), N=1", "value": 3, "unit": "fold"},
      {"measurement": "CNMD gene expression, increase vs DMSO", "setting": "[1]; OA disease model (+IL1β), N=1", "value": 6, "unit": "fold"},
      {"measurement": "MATN3 gene expression, increase vs DMSO", "setting": "[1]; OA disease model (+IL1β), N=1", "value": 6, "unit": "fold"},
      {"measurement": "SMOC2 gene expression, increase vs DMSO", "setting": "[1]; OA disease model (+IL1β), N=1", "value": 2, "unit": "fold"},
      {"measurement": "COL2A1 gene expression, increase vs DMSO", "setting": "[1]; OA disease model (+IL1β), ns", "value": 13, "unit": "fold"},
      {"measurement": "TIMP4 gene expression, increase vs DMSO", "setting": "[1]; OA disease model (+IL1β), ns", "value": 1.1, "unit": "fold"},
      {"measurement": "ACAN gene expression, increase vs DMSO", "setting": "[1]; chondrogenic (−IL1β), N=1", "value": 2, "unit": "fold"},
      {"measurement": "CNMD gene expression, increase vs DMSO", "setting": "[1]; chondrogenic (−IL1β), N=1", "value": 7, "unit": "fold"},
      {"measurement": "COL2A1 gene expression, increase vs DMSO", "setting": "[1]; chondrogenic (−IL1β), N=1", "value": 5, "unit": "fold"},
      {"measurement": "MATN3 gene expression, increase vs DMSO", "setting": "[1]; chondrogenic (−IL1β), N=1", "value": 2, "unit": "fold"},
      {"measurement": "SMOC2 gene expression, increase vs DMSO", "setting": "[1]; chondrogenic (−IL1β), N=1", "value": 2, "unit": "fold"},
      {"measurement": "TIMP4 gene expression, increase vs DMSO", "setting": "[1]; chondrogenic (−IL1β), N=1", "value": 4, "unit": "fold"},
      {"measurement": "ADAMTS5 gene expression, reduction vs DMSO", "setting": "[1]; disease model (+IL1β), ns", "value": 1.4, "unit": "fold"},
      {"measurement": "gene expression of cartilage anabolic biomarkers", "setting": "[2]; N=2, not powered for significance", "value": "increased; also recorded: increase in expression"},
      {"measurement": "articular cartilage thickness (appearance post-dissection)", "setting": "[2]; N=2, vs DMSO", "value": "appears thicker"},
      {"measurement": "infiltration of blood vessels in articular cartilage", "setting": "[2]; male aged 18 weeks, N=2, vs DMSO", "value": "absent; also recorded: not present"},
      {"measurement": "ADAMTS5 gene expression, reduction vs DMSO", "setting": "[3]", "value": 1.3, "unit": "fold"},
      {"measurement": "ACAN gene expression, increase vs DMSO", "setting": "[3]; OA disease model (+IL1β)", "value": 1.6, "unit": "fold"},
      {"measurement": "MATN3 gene expression, increase vs DMSO", "setting": "[3]; OA disease model (+IL1β)", "value": 3, "unit": "fold"},
      {"measurement": "glycosaminoglycan (GAG; alcian blue stain) intensity vs DMSO", "setting": "[3]; both conditions (−IL1β and +IL1β)", "value": "increase"},
      {"measurement": "ACAN gene expression, increase vs DMSO", "setting": "[3]; chondrogenic (−IL1β)", "value": 3, "unit": "fold"},
      {"measurement": "MATN3 gene expression, increase vs DMSO", "setting": "[3]; chondrogenic (−IL1β)", "value": 4, "unit": "fold"},
      {"measurement": "gait symmetry (left/right step ratio)", "setting": "[4]; week 11", "value": "modified step symmetry; also recorded: closer to 1"},
      {"measurement": "number of steps per second, rear left limb, increase vs DMSO", "setting": "[4]; week 11, MSC N=6, DMSO N=5", "value": 1.25, "unit": "fold"},
      {"measurement": "number of steps per second, rear right limb, increase vs DMSO", "setting": "[4]; week 11, MSC N=6, DMSO N=5", "value": 1.5, "unit": "fold"}
    ]}
  ]
}
